In patent US7671077B2, “Neuroprotective small organic molecules, compositions and uses related thereto” (priority 2004, dated 2010):

System: midbrain dopaminergic neurons
Assay: Dopamine (DA) uptake assay in primary midbrain cultures
Assay type: cell-based, rat
Conditions: for activity at 0.6 µM: compound concentration 0.6 μM; for activity at 2.5 µM: compound concentration 2.5 μM; for activity at 5 µM: compound concentration 5 μM; for activity at 20 µM: compound concentration 20 μM
Protocol: Primary midbrain cultures were prepared from rat embryo ventral mesencephalon as described previously by Lin et al (1994). In brief, rostral mesencephalic tegmentum of embryonic day 16 rat embryos was collected in DMEM/F12 (Hyclone SH30023.01) containing 2 mM glutamine on ice, The tissue was treated with 0.1% trypsin in Hanks' balanced salt solution (HBSS, Gibco 14175-095) for 15 min at 37° C. and dissociated mechanically by mild trituration with a fire-polished glass pipet in growth medium plus 2% heat-inactivated fetal bovine serum (FBS). The growth medium consisted of equal volumes of Dulbecco's minimal essential medium DMEM (Gibco 12100-046) and HAM's F12 nutrient mixture (Gibco 21700-075) supplemented with 33 mM glucose, 13 mM sodium bicarbonate, 5 mM HEPES, 2 mM glutamine, 25 μg/ml insulin, 100 μg/ml transferrin, 60 μM putrescine, 20 nM progesterone, 30 nM sodium selenite, 5 U/ml penicillin G and 5 μg/ml streptomycin. 24-well tissue culture plate was coated by adding 15 μg/ml poly-1-ornithine hydrobromide solution at 0.5 ml/well, incubated at room temperature for 1 hr. The coating solution was removed and the well washed 3 times with distilled water and one wash with HBSS. The dissociated cells were plated onto polyornithine-coated wells at 250,000-350,000 trypan blue-excluding viable cells per well in 500 μl of above medium containing 1% FBS. After 3 h when most of the cells had adhered to the bottom of the well, the medium was replaced with 500 μl of fresh medium without FBS. A serial dilution of the sample to be assayed for trophic activity was added to each well in duplicate at the time of medium change or within 24 h thereafter. Unless otherwise stated, cultures were incubated at 37° C. without any further medium change up to 7 days. Primary hindbrain cultures were prepared as described for the midbrain cultures except that the rostral raphe region (instead of the rostral mesencephalon) was dissected and trypsinized for 20 (instead of 15) min.
[^3H]DA uptake was measured in cultures at day 7, and all the solutions were maintained at 37° C. The growth medium was removed, and the cultures were rinsed twice with 0.25 ml of uptake buffer, which consists of HBSS (Gibco 11201-092) supplemented with 28 mM glucose, 15 mM HEPES, 1 mM ascorbic acid (an antioxidant), and […] pargyline (a monoamine oxidase inhibitor). The cultures were then incubated with 0.25 ml of fresh uptake buffer containing 50 nM [^3H]DA (NEN/DuPont) for 20 min at 37° C. [^3H]DA uptake was stopped by removing the incubation mixture, and cells were then washed twice with 0.5 ml of the uptake buffer at room temperature. To release [^3H]DA from the cells, the cultures were lysed with 0.2 ml of 0.1 N NaOH for 1 h at room temperature, the lysate was then added to 1 ml of Microscint-20 (Packard 6013621), and counted for radioactivity in a microplate scintillation counter (Packard TopCount, NXT). Background values were obtained by adding to the uptake buffer 0.5 mM GBR-12909, a specific inhibitor of the high-affinity uptake pump of the dopaminergic neurons, and were usually <5% of the ^3H uptake in untreated control cultures. Forskolin (Fk, 25 μM) was employed as a positive control.

[1] = Rattus norvegicus, Neuron, compound concentration 1.25 μM, midbrain culture, read-out: DA uptake % of control
[2] = Rattus norvegicus, Neuron, midbrain culture, read-out: DA uptake % of control

With O=C(/C=C/c1ccc(Cl)cc1)Nc1ccc(S(=O)(=O)Nc2ncccn2)cc1 [A′] the activity at 1.25 µM [1] was 140%.

Work on O=C(/C=C/c1ccc(C(F)(F)F)cc1)Nc1ccc(S(=O)(=O)Nc2nccs2)cc1 [A′′′] yielded an activity at 0.6 µM [2] of 195%.

In the case of O=C(/C=C/c1ccccc1F)Nc1ccc(S(=O)(=O)Nc2nccs2)cc1 [A′′′′], the activity at 2.5 µM [2] is reported as 170%.

O=C(/C=C/c1c(Cl)cccc1Cl)Nc1ccc(S(=O)(=O)Nc2ccccn2)cc1 [A″] gave an activity at 1.25 µM [1] of 340%.

In the case of O=C(/C=C/c1ccccc1)Nc1ccc(S(=O)(=O)Nc2nccs2)cc1 [B], the activity at 2.5 µM [2] is reported as 170%.

CCc1nnc(NS(=O)(=O)c2ccc(NC(=O)c3ccc(Cl)cc3Cl)cc2)s1 [B′] showed an activity at 5 µM [2] of 150%.

COc1cc(Br)c(/C=C/C(=O)Nc2ccc(S(=O)(=O)Nc3nccs3)cc2)cc1OC [B′′′] showed an activity at 1.25 µM [1] of 260%.

Cc1cccc(/C=C/C(=O)Nc2ccc(S(=O)(=O)Nc3ccccn3)cc2)c1 [B′′′′] was tested, and the activity at 5 µM [2] was 240%.

O=C(/C=C/c1cccc(Cl)c1)Nc1ccc(S(=O)(=O)Nc2nc[nH]n2)cc1 [B′′′′′] gave an activity at 1.25 µM [1] of 230%.

Cc1cc(NS(=O)(=O)c2ccc(NC(=O)/C=C/c3ccccc3Cl)cc2)no1 [B″] showed an activity at 5 µM [2] of 180%.

Compound O=C(COc1ccc(Cl)cc1)Nc1ccc(S(=O)(=O)Nc2nccs2)cc1 [Compound D] has an activity at 20 µM [2] of 210%.

For CCc1nnc(NS(=O)(=O)c2ccc(NC(=O)c3ccccc3F)cc2)s1 [Compound Z], the activity at 10 µM (Rattus norvegicus, Neuron, compound concentration 10 μM, midbrain culture, read-out: DA uptake % of control) was 150%.

With Cc1ccc(/C=C/C(=O)Nc2ccc(S(=O)(=O)Nc3cccs3)cc2)c(C)c1 [Compound Z′] the “stimulation maximum of DA uptake compared to compound A” value (FIG. 36) was “higher stimulation maximum”, the activity at 1.25 µM [1] was 365% and the EC50 (Rattus norvegicus, Neuron, midbrain culture, FIG. 36, read-out: half-maximal effective concentration (EC50) for DA uptake stimulation) was ~200 nM.

O=C(/C=C/c1ccccc1Cl)Nc1ccc(S(=O)(=O)Nc2ncccn2)cc1 [C′] was tested, and the activity at 2.5 µM [2] was 140%.

Compound O=C(/C=C/c1cccc(C(F)(F)F)c1Cl)Nc1ccc(S(=O)(=O)Nc2nccs2)cc1 [C′′′] has an activity at 0.6 µM [2] of 180%.

For Cc1ccc(/C=C/C(=O)Nc2ccc(S(=O)(=O)Nc3ccccn3)cc2)cc1 [C′′′′], the activity at 2.5 µM [2] was 160%.

For O=C(/C=C/c1c(Cl)cccc1Cl)Nc1ccc(S(=O)(=O)Nc2nccs2)cc1 [C′′′′′], the “DA uptake % of control” value (compound concentration 1.25 μM, midbrain culture, 1.25 µM) was 310% of control.

O=C(Nc1ccc(S(=O)(=O)Nc2cccs2)cc1)c1ccc2ccccc2c1 [C″] gave an activity at 2.5 µM [2] of 200%.

O=C(Nc1ccc(S(=O)(=O)Nc2nccs2)cc1)c1sc2ccccc2c1Cl [D′] was tested, and the activity at 0.6 µM [2] was 170%.

Cc1cc(C)cc(/C=C/C(=O)Nc2ccc(S(=O)(=O)Nc3nccs3)cc2)c1 [D′′′] showed an activity at 1.25 µM [1] of 240%.

In the case of Cn1c(C(=O)Nc2ccc(S(=O)(=O)Nc3nccs3)cc2)cc2ccccc21 [D′′′′], the activity at 2.5 µM [2] is reported as 190%.

Compound Cc1ccccc1/C=C/C(=O)Nc1ccc(S(=O)(=O)Nc2nc[nH]n2)cc1 [D′′′′′] has an activity at 2.5 µM [2] of 260%.

Work on O=C(/C=C/c1ccccc1Br)Nc1ccc(S(=O)(=O)Nc2nc[nH]n2)cc1 [D″] yielded an activity at 1.25 µM [1] of 310%.

With Cc1ccc(/C=C/C(=O)Nc2ccc(S(=O)(=O)Nc3nccs3)cc2)cc1 [E] the activity at 2.5 µM [2] was 260%.

O=C(/C=C/c1cccc([N+](=O)[O-])c1)Nc1ccc(S(=O)(=O)Nc2nccs2)cc1 [E′] gave an activity at 1.2 µM (Rattus norvegicus, Neuron, compound concentration 1.2 μM, midbrain culture, read-out: DA uptake % of control) of 210%.

CN(C)c1ccc(C(=O)Nc2ccc(S(=O)(=O)Nc3nccs3)cc2)cc1 [E′′′] gave an activity at 2.5 µM [2] of 130%.

Compound O=C(Nc1ccc(S(=O)(=O)Nc2nccs2)cc1)c1cc2ccccc2o1 [E′′′′] has an activity at 2.5 µM [2] of 260%.

Compound Cc1cccc(/C=C/C(=O)Nc2ccc(S(=O)(=O)Nc3nc[nH]n3)cc2)c1 [E″] has an activity at 1.25 µM [1] of 290%.

With O=C(Nc1ccc(S(=O)(=O)Nc2nccs2)cc1)c1ccc(F)c(F)c1 [F] the activity at 20 µM [2] was 180%.

For O=C(Nc1ccc(S(=O)(=O)Nc2nccs2)cc1)c1sc2cc(Cl)ccc2c1Cl [F′], the activity at 0.3 µM (Rattus norvegicus, Neuron, compound concentration 0.3 μM, midbrain culture, read-out: DA uptake % of control) was 180%.
